{"source": "patent US8575172B2", "about": "(Zysis Limited, priority 2006, dated 2013)", "origin": "cited, not measured here", "key": {"5-HT1A receptor": {"biological_target": "T1, 5-HT1A receptor (Homo sapiens, UniProt P08908)", "T1 sequence (P08908 1-422)": "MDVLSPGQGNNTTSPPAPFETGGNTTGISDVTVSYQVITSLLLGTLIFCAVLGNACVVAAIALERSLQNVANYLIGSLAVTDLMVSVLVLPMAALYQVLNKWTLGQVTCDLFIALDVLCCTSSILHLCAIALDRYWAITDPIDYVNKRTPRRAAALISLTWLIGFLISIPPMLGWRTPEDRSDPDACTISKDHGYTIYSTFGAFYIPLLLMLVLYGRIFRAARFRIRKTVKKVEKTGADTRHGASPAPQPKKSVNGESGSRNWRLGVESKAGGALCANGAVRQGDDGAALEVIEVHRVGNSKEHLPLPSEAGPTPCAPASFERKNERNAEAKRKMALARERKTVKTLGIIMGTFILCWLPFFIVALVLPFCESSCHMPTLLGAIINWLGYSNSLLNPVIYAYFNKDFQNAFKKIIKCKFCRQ"}, "5-HT2A receptor": {"biological_target": "5-HT2A receptor (Homo sapiens, UniProt P28223)", "sequence (P28223 whole entry)": "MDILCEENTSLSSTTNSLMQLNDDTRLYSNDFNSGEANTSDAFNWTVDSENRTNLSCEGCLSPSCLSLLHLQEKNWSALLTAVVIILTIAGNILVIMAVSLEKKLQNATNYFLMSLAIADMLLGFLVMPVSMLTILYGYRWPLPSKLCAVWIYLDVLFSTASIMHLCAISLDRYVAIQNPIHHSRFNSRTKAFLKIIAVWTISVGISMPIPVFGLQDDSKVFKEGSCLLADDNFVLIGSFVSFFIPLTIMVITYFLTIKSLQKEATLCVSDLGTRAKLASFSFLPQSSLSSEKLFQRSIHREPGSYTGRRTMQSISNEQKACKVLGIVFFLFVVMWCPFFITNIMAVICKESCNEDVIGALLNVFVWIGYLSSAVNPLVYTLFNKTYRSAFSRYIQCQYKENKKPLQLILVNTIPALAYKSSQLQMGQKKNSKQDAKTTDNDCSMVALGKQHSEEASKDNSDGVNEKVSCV"}, "[1]": {"system": "alpha adrenergic receptors"}, "[2]": {"system": "cholinergic muscarinic receptors"}, "CYP2D6": {"biological_target": "CYP2D6 (Homo sapiens, UniProt P10635)", "sequence (P10635 whole entry)": "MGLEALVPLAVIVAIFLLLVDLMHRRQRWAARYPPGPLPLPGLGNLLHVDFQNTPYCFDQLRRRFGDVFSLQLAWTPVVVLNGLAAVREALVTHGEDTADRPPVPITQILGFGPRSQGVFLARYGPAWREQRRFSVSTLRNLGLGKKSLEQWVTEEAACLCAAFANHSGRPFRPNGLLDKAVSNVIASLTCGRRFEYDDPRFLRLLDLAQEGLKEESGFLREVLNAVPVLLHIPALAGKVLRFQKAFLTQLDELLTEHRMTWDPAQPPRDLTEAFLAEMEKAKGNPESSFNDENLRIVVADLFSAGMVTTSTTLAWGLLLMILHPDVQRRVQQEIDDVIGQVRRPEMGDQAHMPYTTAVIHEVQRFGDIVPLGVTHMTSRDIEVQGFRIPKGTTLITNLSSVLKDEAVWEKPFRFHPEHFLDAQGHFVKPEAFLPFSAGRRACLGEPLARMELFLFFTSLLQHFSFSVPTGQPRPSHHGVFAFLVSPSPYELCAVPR"}, "[3]": {"settings": "single oral dose"}, "[4]": {"settings": "CYP2D6 poor vs extensive metabolizers"}}, "note": "Where two headings read alike, the source gives them in different places.", "data": [{"smiles": "O=c1ccc2ccc(OCCCCN3CCN(c4cccc(Cl)c4Cl)CC3)cc2[nH]1", "note": "[dehydro-aripiprazole]", "values": [{"measurement": "decrease in exposure to the active metabolite in PMs compared to EMs", "setting": "[4]", "result": "~30", "unit": "%"}, {"measurement": "share of aripiprazole AUC in plasma", "setting": "at steady state", "result": "about 40%"}, {"measurement": "mean elimination half-life", "setting": "in vivo", "result": "~94", "unit": "h"}, {"measurement": "share of the parent drug exposure in plasma", "setting": "in vivo", "result": 40, "unit": "%"}]}, {"smiles": "O=C1CCc2ccc(OCCCCN3CCN(c4cccc(Cl)c4Cl)CC3)cc2N1", "note": "[aripiprazole, 7-[4-[4-(2,3-dichlorophenyl)piperazin-1-yl]butoxy]-3,4-dihydro-1H-quinolin-2-one]", "values": [{"measurement": "mean elimination half-life", "setting": "CYP2D6 extensive metabolizers (EMs)", "result": "about 75 hours"}, {"measurement": "mean elimination half-life", "setting": "CYP2D6 poor metabolizers (PMs)", "result": "~146", "unit": "h"}, {"measurement": "increase in aripiprazole exposure in PMs compared to EMs", "setting": "[4]", "result": "~80", "unit": "%"}, {"measurement": "absorption", "setting": "administered orally as the solution", "result": "well absorbed"}, {"measurement": "absorption", "setting": "after administration of the IR tablet", "result": "well absorbed"}, {"measurement": "higher exposure to the total active moieties in PMs compared to EMs", "setting": "from a given dose of aripiprazole", "result": "~60", "unit": "%"}, {"measurement": "mean elimination half-life", "setting": "in vivo", "result": "about 75 hours"}, {"measurement": "pharmacokinetics at steady state", "setting": "in vivo", "result": "dose-proportional"}, {"measurement": "activity at the 5-HT1A receptor", "setting": "5-HT1A receptor", "result": "partial agonist"}, {"measurement": "profile at the 5-HT2A receptor", "setting": "5-HT2A receptor", "result": "antagonist"}, {"measurement": "affinity for histamine receptors", "setting": "histamine receptors", "result": "moderate affinity"}, {"measurement": "affinity for alpha adrenergic receptors", "setting": "[1]", "result": "moderate affinity"}, {"measurement": "affinity for cholinergic muscarinic receptors", "setting": "[2]", "result": "no appreciable affinity"}, {"measurement": "effect on the CYP2D6 pathway", "setting": "CYP2D6", "result": "does not inhibit or induce"}, {"measurement": "oral dose recovered unchanged in the feces", "setting": "[3]", "result": "approximately 18%"}, {"measurement": "unchanged aripiprazole excreted in the urine", "setting": "[3]", "result": "Less than 1%"}, {"measurement": "administered radioactivity recovered in the feces", "setting": "[3]; [14C]-labeled", "result": "~55", "unit": "%"}, {"measurement": "administered radioactivity recovered in the urine", "setting": "[3]; [14C]-labeled", "result": "approximately 25%"}]}]}
